Assay results from BindingDB's records for doi:10.1021/jm3015052.

The compounds below were run against Acetylcholinesterase (Homo sapiens, UniProt P22303) (assay: Inhibition of AChE (unknown origin)).
Chain of Acetylcholinesterase (P22303 whole entry): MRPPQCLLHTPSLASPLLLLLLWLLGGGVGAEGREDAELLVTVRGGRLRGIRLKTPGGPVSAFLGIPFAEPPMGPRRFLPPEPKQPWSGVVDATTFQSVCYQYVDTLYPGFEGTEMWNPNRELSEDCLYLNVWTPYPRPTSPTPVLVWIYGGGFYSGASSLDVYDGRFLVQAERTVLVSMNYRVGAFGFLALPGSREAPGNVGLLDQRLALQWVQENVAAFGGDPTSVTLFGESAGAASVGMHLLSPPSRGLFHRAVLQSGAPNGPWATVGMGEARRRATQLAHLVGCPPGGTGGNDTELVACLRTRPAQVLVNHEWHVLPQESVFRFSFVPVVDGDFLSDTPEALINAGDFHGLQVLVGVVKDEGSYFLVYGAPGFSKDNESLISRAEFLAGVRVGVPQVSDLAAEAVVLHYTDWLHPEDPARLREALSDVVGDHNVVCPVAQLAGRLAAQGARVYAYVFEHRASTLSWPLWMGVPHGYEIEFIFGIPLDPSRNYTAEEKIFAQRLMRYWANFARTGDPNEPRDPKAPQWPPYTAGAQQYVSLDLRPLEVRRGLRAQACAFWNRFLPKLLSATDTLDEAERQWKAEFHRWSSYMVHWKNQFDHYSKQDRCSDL
Compound `O=C1/C(=C/c2ccc(OCCN3CCCCC3)cc2)Oc2ccccc21` has an IC50 of 0.348 µM.
Compound `COc1ccc2c(c1)O/C(=C\c1ccc(OCCN3CCCCC3)c(Cl)c1)C2=O` has an IC50 of 0.16 µM.
`CCOc1ccc2c(c1)O/C(=C\c1ccc(OCCN3CCCCC3)cc1)C2=O` gave an IC50 of 0.045 µM.
In the case of `O=C1/C(=C/c2ccc(OCCN3CCCC3)cc2)Oc2ccccc21`, the IC50 is reported as 0.545 µM.
`COc1ccc(/C=C2\Oc3cc(OCCN4CCCCC4)ccc3C2=O)cc1` was tested, and the IC50 was 0.845 µM.
`COc1cc(/C=C2\Oc3cc(OCCN4CCCCC4)ccc3C2=O)cc(OC)c1OC` gave an IC50 of 0.422 µM.
Work on `COc1cc(/C=C2\Oc3cc(OCCN4CCCC4)ccc3C2=O)cc(OC)c1OC` yielded an IC50 of 0.643 µM.

What follows are compounds tested against T1, Tyrosine-protein phosphatase non-receptor type 1 (Homo sapiens, UniProt P18031) (assay: Inhibition of PTP1B (unknown origin)).
T1 sequence (P18031 whole entry): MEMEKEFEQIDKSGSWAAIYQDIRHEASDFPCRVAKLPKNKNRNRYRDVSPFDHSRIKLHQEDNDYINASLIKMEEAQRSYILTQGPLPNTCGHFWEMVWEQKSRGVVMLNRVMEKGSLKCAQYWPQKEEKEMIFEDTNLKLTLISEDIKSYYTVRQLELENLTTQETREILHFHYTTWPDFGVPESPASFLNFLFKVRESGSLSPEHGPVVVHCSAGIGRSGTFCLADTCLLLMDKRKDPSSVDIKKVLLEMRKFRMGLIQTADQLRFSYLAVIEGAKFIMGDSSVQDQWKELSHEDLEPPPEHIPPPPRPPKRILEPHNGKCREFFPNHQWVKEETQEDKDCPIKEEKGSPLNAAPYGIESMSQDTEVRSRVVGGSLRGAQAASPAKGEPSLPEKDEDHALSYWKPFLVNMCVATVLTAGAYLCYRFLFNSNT
For `CC(C)=CCc1c(O)ccc2c1O/C(=C\c1ccc(O)cc1)C2=O`, the IC50 was 11.3 µM.

What follows are compounds tested against T2, Diacylglycerol O-acyltransferase 1 (Homo sapiens, UniProt O75907) (assay: Inhibition of DGAT1 (unknown origin)).
T2 sequence (O75907 whole entry): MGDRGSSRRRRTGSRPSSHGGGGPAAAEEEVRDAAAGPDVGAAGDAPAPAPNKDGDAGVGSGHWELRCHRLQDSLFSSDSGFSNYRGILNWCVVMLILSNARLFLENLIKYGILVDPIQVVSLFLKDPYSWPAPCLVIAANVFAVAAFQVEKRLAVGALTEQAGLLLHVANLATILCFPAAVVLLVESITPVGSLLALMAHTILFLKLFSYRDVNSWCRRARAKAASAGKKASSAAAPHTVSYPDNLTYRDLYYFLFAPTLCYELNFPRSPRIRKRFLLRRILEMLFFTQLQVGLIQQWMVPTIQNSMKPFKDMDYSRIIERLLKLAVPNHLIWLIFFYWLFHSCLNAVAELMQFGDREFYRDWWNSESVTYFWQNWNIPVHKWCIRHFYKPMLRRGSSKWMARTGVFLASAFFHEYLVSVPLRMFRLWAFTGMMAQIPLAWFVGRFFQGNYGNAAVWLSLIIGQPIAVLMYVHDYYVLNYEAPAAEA
Work on `CC(C)=CCc1c(O)ccc2c1O/C(=C\c1ccc(O)cc1)C2=O` yielded an IC50 of 35.2 µM.
